From ChEMBL document CHEMBL1201862, “PubChem BioAssay data set” (2004)
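Five compound concentrations were applied to cells in 96-well plates for 48 hours; endpoints were derived by simple linear interpolation of the resulting dose-response curve. GI50: concentration for 50% inhibition of growth.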 Calls of active or inactive are those of the source. Rule as the data show it: active = GI50 up to about 1.1 µM and inactive = higher.

Key:
Assay in all cases: NCI-60 cell line screen, 48 h
[1] = test system: A498
[2] = test system: CAKI-1
[3] = test system: COLO 205
[4] = test system: EKVX
[5] = test system: HL-60
[6] = test system: KM12
[7] = test system: LXFL 529
[8] = test system: Malme-3M
[9] = test system: NCI-H23
[10] = test system: NCI/ADR-RES
[11] = test system: OVCAR-3
[12] = test system: OVCAR-5
[13] = test system: RPMI-8226
[14] = test system: SF-268
[15] = test system: SF-295
[16] = test system: SN12C
[17] = test system: SNB-75
[18] = test system: T47D
[19] = test system: U-251
[20] = test system: UACC-62

SMILES | GI50 [1] | GI50 [2] | GI50 [3] | GI50 [4] | GI50 [5] | GI50 [6] | GI50 [7] | GI50 [8] | GI50 [9] | GI50 [10] | GI50 [11] | GI50 [12] | GI50 [13] | GI50 [14] | GI50 [15] | GI50 [16] | GI50 [17] | GI50 [18] | GI50 [19] | GI50 [20]
COC(=O)Cc1cc(O)c2c(c1O)C(=O)c1ccccc1C2=O | 48.1 µM (inactive) | > 100 µM (inactive) | > 100 µM (inactive) | > 94.2 µM (inactive) | > 94.6 µM (inactive) | > 100 µM (inactive) | 71.4 µM (inactive) | > 74 µM (inactive) | > 56 µM (inactive) | 71.9 µM (inactive) | > 71.9 µM (inactive) | > 100 µM (inactive) | > 67.5 µM (inactive) | 51.1 µM (inactive) | 27.6 µM (inactive) | 99.5 µM (inactive) | 20.6 µM (inactive) | > 100 µM (inactive) | 27.9 µM (inactive) | > 100 µM (inactive)
CC[C@@]1(OC(=O)CN(C)C)C(=O)OCc2c1cc1n(c2=O)Cc2cc3ccccc3nc2-1 | 0.205 µM (active) | 0.0211 µM (active) | 0.394 µM (active) | 0.863 µM (active) | 0.0105 µM (active) | 0.223 µM (active) | 1.29 µM (inactive) | 0.347 µM (active) | 0.0865 µM (active) | 0.0421 µM (active) | 0.32 µM (active) | 0.247 µM (active) | 0.181 µM (active) | < 0.0131 µM (active) | 0.01 µM (active) | < 0.0191 µM (active) | 0.0647 µM (active) | – | 0.0118 µM (active) | 0.00569 µM (active)
Cc1c2ccncc2c(C)c2c1[nH]c1ccc(Cl)cc12 | 4.46 µM (inactive) | – | 2.16 µM (inactive) | 4.84 µM (inactive) | 2.11 µM (inactive) | 1.86 µM (inactive) | 1.84 µM (inactive) | 5.68 µM (inactive) | 3.56 µM (inactive) | 1.22 µM (inactive) | 2.2 µM (inactive) | 7.05 µM (inactive) | 1.59 µM (inactive) | – | – | 3.41 µM (inactive) | 3.55 µM (inactive) | – | 5.13 µM (inactive) | 3.37 µM (inactive)
CC1CCSC(N(C(=O)N(C)c2ccccc2)c2ccccc2)=N1 (stereo unspecified) | > 100 µM (inactive) | > 100 µM (inactive) | > 100 µM (inactive) | > 100 µM (inactive) | > 100 µM (inactive) | > 100 µM (inactive) | > 100 µM (inactive) | > 100 µM (inactive) | > 100 µM (inactive) | – | > 100 µM (inactive) | > 100 µM (inactive) | > 100 µM (inactive) | > 100 µM (inactive) | > 100 µM (inactive) | > 100 µM (inactive) | > 100 µM (inactive) | – | > 100 µM (inactive) | > 100 µM (inactive)
COC(=O)C12C3C4C5C3(C#N)C1C5(C(=O)OC)C42C(=O)N(C(C)C)C(C)C (stereo unspecified) | > 100 µM (inactive) | > 100 µM (inactive) | > 60.4 µM (inactive) | > 100 µM (inactive) | > 43.7 µM (inactive) | > 100 µM (inactive) | > 92.9 µM (inactive) | > 100 µM (inactive) | > 100 µM (inactive) | – | > 100 µM (inactive) | > 100 µM (inactive) | > 48.6 µM (inactive) | > 100 µM (inactive) | > 100 µM (inactive) | > 100 µM (inactive) | > 100 µM (inactive) | – | > 78 µM (inactive) | > 100 µM (inactive)
COc1ccc(C2CC(=O)c3c(O)cc(O)cc3O2)cc1O (stereo unspecified) | > 100 µM (inactive) | > 100 µM (inactive) | > 100 µM (inactive) | > 100 µM (inactive) | > 100 µM (inactive) | > 100 µM (inactive) | > 100 µM (inactive) | > 100 µM (inactive) | > 100 µM (inactive) | – | > 100 µM (inactive) | > 100 µM (inactive) | 78 µM (inactive) | > 100 µM (inactive) | > 100 µM (inactive) | > 100 µM (inactive) | 53.8 µM (inactive) | – | > 100 µM (inactive) | > 100 µM (inactive)
O=c1c(-c2ccccc2)c(O)nc2[nH]c3ccccc3n12 | > 100 µM (inactive) | > 100 µM (inactive) | > 100 µM (inactive) | > 100 µM (inactive) | > 100 µM (inactive) | > 100 µM (inactive) | > 100 µM (inactive) | > 100 µM (inactive) | > 100 µM (inactive) | – | > 100 µM (inactive) | > 100 µM (inactive) | > 100 µM (inactive) | > 100 µM (inactive) | > 100 µM (inactive) | > 100 µM (inactive) | > 100 µM (inactive) | – | > 100 µM (inactive) | > 100 µM (inactive)
COc1cc2c(c(OC)c1OC)-c1ccc(OC)c(=O)cc1C(NC(=O)c1ccc(N=[N+]=[N-])cc1)CC2 (stereo unspecified) | 0.0186 µM (active) | 0.032 µM (active) | 0.021 µM (active) | 0.132 µM (active) | 0.0272 µM (active) | 0.0234 µM (active) | 0.0372 µM (active) | 0.608 µM (active) | 0.0327 µM (active) | – | 0.0255 µM (active) | – | 0.0359 µM (active) | 0.0557 µM (active) | 0.0246 µM (active) | 0.0514 µM (active) | 0.766 µM (active) | > 100 µM (inactive) | 0.0307 µM (active) | 0.0275 µM (active)
CN(C)[C@@H]1C(O)=C(C(=O)NCNc2nc3[nH]nnc3c(=O)[nH]2)C(=O)[C@@]2(O)C(O)=C3C(=O)c4c(O)cccc4[C@@](C)(O)[C@H]3C[C@@H]12 | 92 µM (inactive) | 0.557 µM (active) | 23.6 µM (inactive) | 12.4 µM (inactive) | 0.231 µM (active) | 49.8 µM (inactive) | 53.1 µM (inactive) | 0.773 µM (active) | 35.3 µM (inactive) | 2.37 µM (inactive) | 25.9 µM (inactive) | 33.5 µM (inactive) | 0.272 µM (active) | 1.01 µM (active) | 4.47 µM (inactive) | 0.743 µM (active) | 11.2 µM (inactive) | 5.37 µM (inactive) | 2.15 µM (inactive) | 0.346 µM (active)
CCN(CC)CCNc1ccc2nnn3c4ccccc4c(=O)c1c23 | 11.4 µM (inactive) | 3.15 µM (inactive) | 3.55 µM (inactive) | 4.13 µM (inactive) | 2.89 µM (inactive) | 4.01 µM (inactive) | 5.22 µM (inactive) | 4.01 µM (inactive) | 5.81 µM (inactive) | – | 5.07 µM (inactive) | 3.67 µM (inactive) | 2.45 µM (inactive) | 4.83 µM (inactive) | 4.29 µM (inactive) | 4.41 µM (inactive) | 3.6 µM (inactive) | – | 3.27 µM (inactive) | 5.73 µM (inactive)
COC(=O)C(=O)C(C#N)c1cccc2ccccc12 (stereo unspecified) | > 100 µM (inactive) | > 100 µM (inactive) | > 100 µM (inactive) | > 100 µM (inactive) | > 100 µM (inactive) | 22.9 µM (inactive) | > 100 µM (inactive) | > 100 µM (inactive) | > 100 µM (inactive) | – | > 100 µM (inactive) | > 100 µM (inactive) | > 100 µM (inactive) | > 100 µM (inactive) | > 100 µM (inactive) | > 100 µM (inactive) | 97.3 µM (inactive) | – | > 100 µM (inactive) | > 100 µM (inactive)
